We go through 15 molecules from PubChem BioAssay (NCI).

Test systems include MDA-N; RXF 393 renal; SF-268 CNS; SR leukemia; EKVX NSCLC; A549 NSCLC; OVCAR-5 ovarian; RPMI-8226 leukemia; COLO 205 colon.
Holding throughout (assay): NCI-60 cell line screen, 48 h

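How tested: cells in 96-well plates exposed to compound for 48 hours at five concentrations. Here, GI50 denotes the concentration required for 50% inhibition of growth. The concentration for full growth arrest is given as TGI.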

In the case of `Cc1cc(O)c(C(C)C)cc1NC(=O)Nc1cccc2ccccc12`, the TGI was 27.6 µM in the assay on MDA-N; 29.4 µM in the assay on RXF 393 renal; 40.9 µM with SF-268 CNS; greater than 100 µM with SR leukemia; 62.7 µM in the assay with EKVX NSCLC; 45.4 µM in the assay on A549 NSCLC. This molecule gave a TGI in the assay with OVCAR-5 ovarian of 56.4 µM.
As to `Cc1cc(S(=O)(=O)Nc2nc3ccsc3c(=O)n2N)c(S)cc1Cl`, the TGI in the assay with MDA-N, in the assay with SF-268 CNS, in the assay on EKVX NSCLC, in the assay on RPMI-8226 leukemia, with A549 NSCLC and with COLO 205 colon was greater than 100 µM in each case. Besides, the TGI in the assay on OVCAR-5 ovarian was greater than 100 µM.
Consider `Oc1ccc2c(c1)-c1c(c3cc(O)ccc3n1CCN1CCOCC1)CC2`, for which the TGI was 75.8 µM in the assay with RXF 393 renal; greater than 100 µM with SF-268 CNS; 61.8 µM with SR leukemia; greater than 100 µM in the assay with EKVX NSCLC; greater than 100 µM in the assay on RPMI-8226 leukemia; greater than 100 µM in the assay with A549 NSCLC. The TGI in the assay on COLO 205 colon is 32.2 µM; in the assay on OVCAR-5 ovarian, greater than 100 µM.
`CCNc1nc(N)c(C(=O)c2ccc(Cl)cc2)s1`: the TGI in the assay with MDA-N was greater than 100 µM; in the assay with RXF 393 renal it was 53.5 µM; in the assay on SF-268 CNS, greater than 100 µM; in the assay on EKVX NSCLC, 45.5 µM; in the assay on RPMI-8226 leukemia it was greater than 100 µM; with A549 NSCLC, 70.2 µM. In addition, the TGI in the assay on COLO 205 colon was 47 µM; with OVCAR-5 ovarian, greater than 100 µM.
For `Oc1nc(N/N=C/c2c[nH]c3ccccc23)[nH]c1/C=C1\C=Nc2ccccc21`, the TGI is greater than 100 µM with MDA-N; greater than 100 µM in the assay with RXF 393 renal; 43.1 µM in the assay on SF-268 CNS; 89.6 µM in the assay with EKVX NSCLC; 25.5 µM in the assay with RPMI-8226 leukemia; 42.3 µM in the assay on A549 NSCLC. Further, the TGI was 26.7 µM with COLO 205 colon and greater than 100 µM in the assay on OVCAR-5 ovarian.
Regarding `CC(=O)Nc1ccc(S(=O)(=O)Nc2nnc(S(N)(=O)=O)s2)cc1`, the TGI in the assay on RXF 393 renal, with SF-268 CNS, with SR leukemia, in the assay with EKVX NSCLC, in the assay on RPMI-8226 leukemia and in the assay with A549 NSCLC was greater than 100 µM each time. For the same molecule, the TGI with COLO 205 colon and in the assay with OVCAR-5 ovarian was greater than 100 µM in each case.
`O=[N+]([O-])c1ccc2c(c1)nc(Cc1ccccc1)n2C[C@@H]1CCCN2CCCCC12` (stereo partly specified): the TGI in the assay on MDA-N is 38.6 µM; with RXF 393 renal, 59.6 µM; with SF-268 CNS, greater than 100 µM; in the assay with EKVX NSCLC, 62 µM; in the assay on A549 NSCLC, greater than 100 µM; with COLO 205 colon it was 37.4 µM. The TGI with OVCAR-5 ovarian was greater than 100 µM.
As to `CCN(CC)CCCCCCCCNc1c2ccc(Cl)cc2nc2ccc(OC)cc12`, the GI50 with RXF 393 renal is 0.763 µM; in the assay on SF-268 CNS, 1.7 µM; in the assay with SR leukemia it was 0.289 µM; in the assay with EKVX NSCLC, 2.11 µM; with RPMI-8226 leukemia it was 0.675 µM; in the assay on A549 NSCLC, 1.56 µM. Besides, the GI50 in the assay with COLO 205 colon was 1.43 µM; in the assay with OVCAR-5 ovarian, 1.64 µM. The TGI is 2.09 µM in the assay with RXF 393 renal; 3.76 µM in the assay on SF-268 CNS; 0.73 µM in the assay on SR leukemia; 6.13 µM in the assay with EKVX NSCLC; 3.34 µM in the assay on RPMI-8226 leukemia; 3.62 µM in the assay on A549 NSCLC. Also, the TGI with COLO 205 colon is 2.88 µM; in the assay on OVCAR-5 ovarian it was 3.99 µM.
As for `Cc1nc2c(cc1C(=O)NN)c(=O)n(C)c(=O)n2C`, the TGI with MDA-N, with RXF 393 renal, in the assay with EKVX NSCLC, in the assay with RPMI-8226 leukemia, in the assay on A549 NSCLC and in the assay with COLO 205 colon was greater than 100 µM in each case. In addition, in the assay on OVCAR-5 ovarian, the TGI was greater than 100 µM.
Regarding `COc1cc2c(cc1OCCCC(=O)Nc1cc(C(=O)Nc3cc(C(=O)Nc4cc(C(=O)NCCCN(C)C)n(C)c4)n(C)c3)n(C)c1)N=C[C@@H]1CCCN1C2=O`, the TGI stood at 3.8 µM in the assay with MDA-N; 3.15 µM in the assay with RXF 393 renal; 3.31 µM in the assay on SF-268 CNS; 7.57 µM in the assay with EKVX NSCLC; 14.6 µM in the assay on RPMI-8226 leukemia; 36.1 µM in the assay with A549 NSCLC. For the same molecule, the TGI turned out to be 3.15 µM with COLO 205 colon and 9.38 µM with OVCAR-5 ovarian.
For the molecule `O=C(O)CC(NC(=O)Nc1ccc([N+](=O)[O-])cc1)C(=O)Nc1ccc([N+](=O)[O-])cc1` (stereo unspecified), the TGI in the assay on MDA-N, with RXF 393 renal, in the assay on SF-268 CNS, with EKVX NSCLC, in the assay on RPMI-8226 leukemia and with A549 NSCLC was greater than 100 µM in each case. The TGI in the assay on COLO 205 colon and with OVCAR-5 ovarian was greater than 100 µM each time.
For the molecule `CCOC(=O)C1=CN=C2C(=O)N(c3ccccc3)N(C)C2(C)C1=N` (stereo unspecified), the TGI with MDA-N, with RXF 393 renal, in the assay with EKVX NSCLC, with RPMI-8226 leukemia, with A549 NSCLC and in the assay on COLO 205 colon was greater than 100 µM each time. Moreover, the TGI in the assay on OVCAR-5 ovarian is greater than 100 µM.
Regarding `O=[N+]([O-])C(/C(Cl)=C(/Cl)N1CCOCC1)=C1\NCCO1`, the TGI with MDA-N, with SF-268 CNS, in the assay with EKVX NSCLC, with RPMI-8226 leukemia, in the assay with A549 NSCLC and in the assay with COLO 205 colon was greater than 100 µM each time. Moreover, the TGI with OVCAR-5 ovarian was greater than 100 µM.
As for `C(=N\Nc1ncc(-c2cc3cc4c(cc3o2)OCO4)s1)/c1c[nH]c2ccccc12`, the GI50 was 1.33 µM with RXF 393 renal; 0.589 µM in the assay with SF-268 CNS; 0.912 µM in the assay with SR leukemia; 1.27 µM in the assay on EKVX NSCLC; 1.55 µM in the assay on RPMI-8226 leukemia; 0.487 µM in the assay with A549 NSCLC. Besides, the TGI in the assay on RXF 393 renal was 2.78 µM; with SF-268 CNS it was 2.86 µM; with SR leukemia, greater than 100 µM; with EKVX NSCLC, 6.44 µM; in the assay on RPMI-8226 leukemia it was greater than 100 µM; with A549 NSCLC, 3.1 µM.
As to `O=C(NCC1Nc2ccncc2S(=O)(=O)N1)c1ccc(Br)cc1` (stereo unspecified), the TGI in the assay with MDA-N was 58.6 µM; with RXF 393 renal, greater than 100 µM; with SF-268 CNS it was 81.2 µM; with EKVX NSCLC it was greater than 100 µM; in the assay with RPMI-8226 leukemia it was greater than 100 µM; with A549 NSCLC, greater than 100 µM. The TGI in the assay with COLO 205 colon and in the assay on OVCAR-5 ovarian was greater than 100 µM each time.
